Data taken from patent US20220106595A1, “ANTIBACTERIAL ANTISENSE AGENTS” (priority 2018, published 2022).

Experiments:
[1] = system: E. coli (CFT073, ATCC®700928™); assay: Urinary tract infection mouse model, uropathogenic E. coli (CFT073, ATCC 700928); format: in vivo
Procedure: Efficacy of PED-011 Against E. coli (CFT073, ATCC®700928™) in the Urinary Tract Infection Mouse Model; Challenge with a Uropathogenic Strain
(§1) Female BALB/c mice were infected trans-urethrally with ˜5×10^8 CFU/animal E. coli (CFT073, ATCC®700928™). Twenty-four hours post infection animals were treated twice daily (Q12 h) orally with ciprofloxacin at 30 mg/kg and with single IV doses of PED-011 at 3, 10 and 30 mg/kg (u.i.d). Ten animals from each group were terminated at 48 h post treatment (72 h post infection); bladder and kidneys were collected to determine the bacterial load.
(§2) The vehicle for Ciprofloxacin was 0.25% of Carboxy Methyl Cellulose (CMC) (w/v) and PBS was used for PED-011. PED-011 was dissolved in PBS at 0.6, 2 & 6 mg/mL. At twenty-four hours post infection, animals were treated with the first oral dose of ciprofloxacin and the single dose of PED-011 (10 and 30 mg/kg, IV, single bolus dose, 5 ml/kg dose volume). Animals received further doses of oral ciprofloxacin as per the dosing schedule.

[2] = system: E. coli (ATCC BAA-2340); assay: Urinary tract infection mouse model, resistance strain E. coli (ATCC BAA-2340); format: in vivo; settings: 48 h post treatment
Procedure: Efficacy of PED-011 Against E. coli (ATCC BAA-2340) in the Urinary Tract Infection Mouse Model; Challenge with a Resistance Strain
as §1, with “(ATCC BAA-2340).” for “(CFT073, ATCC®700928™).”, “at” for “at 3,”, “treatment;” for “treatment (72 h post infection);”
as §2, with “at” for “at 0.6,”, “hour” for “hours”, “were be” for “were”

[3] = system: E. coli (ATCC25922); assay: Urinary tract infection mouse model, E. coli (ATCC25922); format: in vivo; settings: 48 h post treatment
Procedure: Efficacy of PED-011 Against E. coli (ATCC25922) in the Urinary Tract Infection Mouse Model
as §1, with “trans-ureth rally” for “trans-urethrally”, “˜ 5×10^8” for “˜5×10^8”, “(ATCC 25922). Four” for “(CFT073, ATCC®700928™). Twenty-four”, “at” for “at 3,”, “treatment,” for “treatment (72 h post infection);”
as §2, with “at” for “at 0.6,”, “four” for “twenty-four”

[4] = system: A. baumannii (ATCC19606); assay: Neutropenic lung infection model in mice, A. baumannii (ATCC19606); format: in vivo; settings: FIG. 7
[5] = Log D determination (shake-flask, PBS/1-octanol); format: physicochemical; settings: PBS pH 7.4 / 1-octanol
Procedure: (v) Log D Determinations:
Log D(PBS) determinations is performed in 96 well microtitre plates using a miniaturised “shake-flask” method. […] The plates are then capped and mixed vigorously for 1 hour on a microtitre plate shaker, after which they were left to stand, allowing the PBS and octanol phases to separate.
Where AUCstd and AUCpbs are the peak areas from the standard and test ion chromatograms respectively.

## O=C(O)c1cn(C2CC2)c2cc(N3CCNCC3)c(F)cc2c1=O [Ciprofloxacin, reference compound]
[1]; 30 mg/kg, p.o., b.i.d. Q12h, 72 h post infection, FIG. 3
  bactericidal activity in bladder wrt 24 h PI control and vehicle control: significant (p<0.05) bactericidal activity
[1]; 30 mg/kg, p.o., b.i.d. Q12h, 72 h post infection, p<0.05, FIG. 4
  bactericidal activity in kidney wrt 24 h PI control and vehicle control: significant bactericidal activity
[2]; 30 mg/kg, p.o., Q12 h, p<0.05, FIG. 5
  antibacterial effect in bladder vs 24 h control and vehicle control: significant antibacterial effect
[2]; 30 mg/kg, p.o., Q12 h, p<0.05, FIG. 6
  antibacterial effect in kidneys vs 24 h control and vehicle control: significant antibacterial effect
[3]; 30 mg/kg, p.o., Q12 h, p<0.05, FIG. 1
  antibacterial effect in bladder (Log10 CFU/g) vs 4 h control and vehicle control: significant antibacterial effect
[3]; 30 mg/kg, p.o., Q12 h, p<0.05, FIG. 2
  antibacterial effect in kidneys (Log10 CFU/g) vs 4 h control and vehicle control: significant antibacterial effect
[4]; 10 mg/kg, po, Q12 h, p<0.05
  antibacterial effect in lung vs 52 h vehicle control: significant antibacterial effect

## PED-011: Linker-6 (Sugar-L-Ala-NH(CH2)3CO) coupled to PMO PED-1, CTT CGA TAG TG (Sequence ID 57, AcpP) (CTTCGATAGTG; all phosphorodiamidate morpholino (PMO); Linker-6 sugar-L-Ala conjugate attached, position not given here, further chemistry not fully specified)
[1]; 30 mg/kg, IV, 1 dose, p<0.05, FIG. 4
  antibacterial effect in kidney compared to vehicle control: significant effect
[1]; 3, 10 and 30 mg/kg, IV, 1 dose, FIG. 3
  mean bacterial counts in bladder: dose dependent mean reduction in bacterial counts
[1]; 3, 10 and 30 mg/kg, IV, 1 dose, FIG. 4
  antibacterial effect in kidney compared to vehicle control: dose dependent antibacterial effect
[1]; 3, 10 and 30 mg/kg, IV, 1 dose, p>0.05, FIG. 3
  antibacterial effect in bladder wrt vehicle control: did not show significant antibacterial effect
[2]; 10 mg/kg, IV, single dose, FIG. 5
  antibacterial activity in bladder vs 4 h and vehicle control: not significantly effective
[2]; 10 mg/kg, IV, single dose, p<0.05, FIG. 6
  antibacterial activity in kidneys vs 4 h PI control and vehicle control: significant antibacterial activity
[2]; 30 mg/kg, IV, single dose, FIG. 5
  antibacterial activity in bladder vs 24 h PI control and vehicle control: a reduction but not statistically significant antibacterial activity
[2]; 30 mg/kg, IV, single dose, p<0.05, FIG. 6
  antibacterial activity in kidneys vs 24 h PI control and vehicle control: significant antibacterial activity
[3]; 10 mg/kg, IV, single dose, FIG. 1
  antibacterial activity in bladder vs 4 h and vehicle control: not significantly effective
[3]; 10 mg/kg, IV, single dose, p<0.05, FIG. 2
  antibacterial activity in kidneys vs 4 h PI control and vehicle control: significant antibacterial activity
[3]; 30 mg/kg, IV, single dose, p<0.05, FIG. 1
  antibacterial activity in bladder vs 4 h PI control and vehicle control: significant antibacterial activity
[3]; 30 mg/kg, IV, single dose, p<0.05, FIG. 2
  antibacterial activity in kidneys vs 4 h PI control and vehicle control: significant antibacterial activity
[5]
  Log D7.4: 0.74

## PED-012: Linker-6 coupled to PMO PED-2, TCA AAT GAG GC (Sequence ID 91, ftsZ) (TCAAATGAGGC; all phosphorodiamidate morpholino (PMO); Linker-6 conjugate attached at 3' morpholino end, 5' end group not given here, further chemistry not fully specified)
[4]; 10 mg/kg, IN, single dose, p>0.05
  antibacterial activity in lung vs vehicle control at 52 h PI: not significantly effective
[4]; 30 mg/kg, IN, single dose, p<0.05
  antibacterial activity in lung vs 52 h vehicle control: significant antibacterial activity
